Assay results taken from patent publication US20180303807A1, “ANDROGEN RECEPTOR LIGANDS” (DUKE UNIVERSITY, priority 2015, published 2018).
Where a chain is given by its changes, count along the chain named.

How the values were obtained:
AR [1] = target: T1, AR (Homo sapiens, UniProt P10275, T878A); assay: In Cell Western AR degradation assay in LNCaP cells; assay type: cell-based; details: 18 hrs, greater than 50% degradation at 10 μM (method says 20 μM)
T1 construct: endogenous in cells; host or cells: LNCaP cells
T1 sequence (P10275 1-920 T878A): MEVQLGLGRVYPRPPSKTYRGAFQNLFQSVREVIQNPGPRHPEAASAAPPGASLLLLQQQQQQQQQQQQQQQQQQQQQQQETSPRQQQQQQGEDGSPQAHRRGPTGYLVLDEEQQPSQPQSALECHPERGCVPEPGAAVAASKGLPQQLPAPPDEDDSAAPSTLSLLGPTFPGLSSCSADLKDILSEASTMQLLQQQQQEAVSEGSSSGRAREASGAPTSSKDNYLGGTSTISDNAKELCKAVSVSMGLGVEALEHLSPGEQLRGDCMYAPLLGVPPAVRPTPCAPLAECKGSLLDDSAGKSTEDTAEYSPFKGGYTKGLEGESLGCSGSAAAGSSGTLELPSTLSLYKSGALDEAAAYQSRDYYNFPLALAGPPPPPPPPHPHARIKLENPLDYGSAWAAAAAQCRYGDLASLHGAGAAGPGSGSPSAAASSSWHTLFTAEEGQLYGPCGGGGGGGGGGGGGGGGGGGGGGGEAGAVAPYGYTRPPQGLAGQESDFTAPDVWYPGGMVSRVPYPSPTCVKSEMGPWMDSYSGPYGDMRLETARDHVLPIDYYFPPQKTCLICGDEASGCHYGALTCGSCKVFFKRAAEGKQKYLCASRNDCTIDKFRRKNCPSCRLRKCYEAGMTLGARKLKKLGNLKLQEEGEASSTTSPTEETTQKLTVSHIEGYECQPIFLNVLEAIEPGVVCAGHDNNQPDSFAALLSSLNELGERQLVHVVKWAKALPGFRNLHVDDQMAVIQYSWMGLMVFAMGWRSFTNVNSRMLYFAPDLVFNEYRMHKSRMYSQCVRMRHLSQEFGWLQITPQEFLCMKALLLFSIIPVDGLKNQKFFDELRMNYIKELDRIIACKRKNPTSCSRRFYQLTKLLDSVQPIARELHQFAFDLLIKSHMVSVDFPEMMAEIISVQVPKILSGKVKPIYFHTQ
Procedure: In Cell Western (AR degradation Assay, Table 2, B10). LNCaP cells were plated in 96-well clear bottom black plates (20K cells/well) in RPMI supplemented with 8% CFS. Following 48 hr incubation, cells were treated with hormone (20 μM test compound) for 18 hrs. Cells were fixed with formaldehyde (3.7%) and permeabilized using PBS (0.1% TRITON X-100). Cells were incubated with anti-AR antibody (N20, 1:2000), washed with PBS (0.1% Tween), and stained with 2nd antibody (Biotium CF770 goat anti-rabbit, 1:2000). AR protein expression was assessed using the LI-COR Odyssey imaging system. DRAQ5 (DNA stain, 1:10,000, Thermo Scientific) was used to normalize AR protein expression.
For B4-B7, scoring system is based on the relative AR target gene agonist/antagonist activity of test compounds when compared to benchmark compounds enzalutamide or bicalutamide. […] The lack of agonist activity is desirable for therapies intended to treat CRPC. For B4 and B6, a score of 1 indicates less agonism (highly desired activity) than benchmark compound enzalutamide, a score of 2 indicates equal agonism to enzalutamide (desirable), a score of 3 indicates agonism between enzalutamide and bicalutamide (less desirable activity), a score of 4 indicates equal agonism to bicalutamide (liability), and a score of 5 indicates higher agonism than bicalutamide (liability). For B5 and B7 a score of 1 indicates higher antagonist efficacy (highly desired activity) than benchmark compound enzalutamide, a score of 2 indicates equal antagonist efficacy to enzalutamide (desirable), a score of 3 indicates antagonist efficacy between enzalutamide and bicalutamide (less desirable activity), a score of 4 indicates antagonist efficacy equal to bicalutamide (liability), and a score of 5 indicates antagonist efficacy worse than bicalutamide (liability) For B9, Compounds that degrade AR (greater than 50% degradation at 10 μM) are indicated.

AR [2] = target: T2, AR (Homo sapiens, UniProt P10275); assay: Reporter gene assay, AR transcriptional (MMTV-Luc) in CV1 cells; assay type: cell-based; details: pcDNA-AR + MMTV-Luc, 0.1 nM R1881 plus test compound, 24 hrs, read-out: B1 = AR transcriptional IC50 (μM) in CV1 cells
T2 construct: expressed in transfected cells; host or cells: CV1 cells
T2 sequence (P10275 1-920): T1 sequence (P10275 1-920 T878A) with A878T
Procedure: Reporter Gene Assay (IC50 determination, Table 2, B1-B3). CV1 cells were seeded into 96-well cell culture plates and transfected with Lipofectin. For AR transcriptional assays, the DNA mixture consisted of pcDNA-AR, MMTV-Luc (androgen responsive reporter gene), and Renilla-Luc (for assessing transfection efficiency and toxicity). Following overnight incubation, cells were induced with hormone (0.1 nM R1881 (synthetic AR agonist) plus increasing concentrations of test compound) for 24 hrs. Cells were lysed and luciferase activity was quantified using Dual Luciferase Reagent (DLR). IC50 determination was assessed using GraphPad Prism software.

Row | SMILES | B9 = AR degradation in LNCaP cells (In-Cell Western) (AR [1]) | IC50 (AR [2]) [µM]
1 | Cc1ccsc1C1C2=C(CC(C)(C)CC2=O)Nc2cc(N3CCCC3)ccc21 (stereo not shown) [Compound A116] | Degrader (Compounds that degrade AR (greater than 50% degradation at 10 μM) are indicated) | > 10
2 | CC1(C)CC(=O)C2=C(C1)Nc1ccc3c(c1C2c1ccc(Cl)s1)OCO3 (stereo not shown) [Compound A107] | Degrader (Compounds that degrade AR (greater than 50% degradation at 10 μM) are indicated) | 0.9
3 | CC1(C)CC(=O)C2=C(C1)Nc1ccc3ccccc3c1C2c1ccc([N+](=O)[O-])cc1 (stereo not shown) [Compound A51, 9,9-dimethyl-12-(4-nitrophenyl)-8,9,10,12-tetrahydrobenzo[a]acridin-11(7H)-one] | Degrader (Compounds that degrade AR (greater than 50% degradation at 10 μM) are indicated) | 1.2
4 | CC1(C)CC(=O)C2=C(C1)Nc1ccc3nccnc3c1C2c1cc2ccccc2s1 (racemic) [Compound A93, (±)-12-(benzo[b]thiophen-2-yl)-9,9-dimethyl-8,9,10,12-tetrahydropyrazino[2,3-a]acridin-11(7H)-one] | Degrader (Compounds that degrade AR (greater than 50% degradation at 10 μM) are indicated) | 1.2
5 | CC1(C)CC(=O)C2=C(C1)Nc1ccc3ncccc3c1C2c1ccsc1 (stereo not shown) [Compound A69] | Degrader (Compounds that degrade AR (greater than 50% degradation at 10 μM) are indicated) | 6.1
6 | CC1(C)CC(=O)C2=C(C1)Nc1ccc3ncncc3c1C2c1ccc(Br)s1 (racemic) [Compound A102, (±)-12-(5-bromothiophen-2-yl)-9,9-dimethyl-8,9,10,12-tetrahydropyrimido[5,4-a]acridin-11(7H)-one] | Degrader (Compounds that degrade AR (greater than 50% degradation at 10 μM) are indicated) | 0.4
7 | CC1(C)CC(=O)C2=C(C1)Nc1ccc3cnccc3c1C2c1ccc(F)c(F)c1 (racemic) [Compound A91, (±)-12-(3,4-difluorophenyl)-9,9-dimethyl-8,9,10,12-tetrahydrobenzo[j][3,7]phenanthrolin-11(7H)-one] | Degrader (Compounds that degrade AR (greater than 50% degradation at 10 μM) are indicated) | 1.4
8 | Cc1ccsc1C1C2=C(CC(C)(C)CC2=O)Nc2ccc3ncccc3c21 (stereo not shown) [Compound A114] | Degrader (Compounds that degrade AR (greater than 50% degradation at 10 μM) are indicated) | 1.1
9 | CC1(C)CC(=O)C2=C(C1)Nc1ccc3c(c1C2c1ccc(Br)s1)OCO3 (stereo not shown) [Compound A111] | Degrader (Compounds that degrade AR (greater than 50% degradation at 10 μM) are indicated) | 1.4
10 | CC1(C)CC(=O)C2=C(C1)Nc1ccc3ncccc3c1C2c1cc(Br)c(Br)s1 (stereo not shown) [Compound A76] | Degrader (Compounds that degrade AR (greater than 50% degradation at 10 μM) are indicated) | 2.2
11 | CC1(C)CC(=O)C2=C(C1)Nc1ccc3cn[nH]c3c1C2c1ccc(Br)s1 (stereo not shown) [Compound A110] | Degrader (Compounds that degrade AR (greater than 50% degradation at 10 μM) are indicated) | > 10
12 | CC1(C)CC(=O)C2=C(C1)Nc1cc(N3CCCC3)ccc1C2c1ccc(F)c(F)c1 (racemic) [Compound A90, (±)-9-(3,4-difluorophenyl)-3,3-dimethyl-6-(pyrrolidin-1-yl)-3,4,9,10-tetrahydroacridin-1(2H)-one] | Degrader (Compounds that degrade AR (greater than 50% degradation at 10 μM) are indicated) | > 10
13 | CC1(C)CC(=O)C2=C(C1)Nc1ccc3ncccc3c1C2c1cc2ccccc2s1 (racemic) [Compound A92, (±)-12-(benzo[b]thiophen-2-yl)-9,9-dimethyl-8,9,10,12-tetrahydrobenzo[b][4,7]phenanthrolin-11(7H)-one] | Degrader (Compounds that degrade AR (greater than 50% degradation at 10 μM) are indicated) | 0.9
14 | CC1(C)CC(=O)C2=C(C1)Nc1ccc3c(c1C2c1ccc(F)c(F)c1)OCO3 (stereo not shown) [Compound A59] | Degrader (Compounds that degrade AR (greater than 50% degradation at 10 μM) are indicated) | > 10
15 | CC1(C)CC(=O)C2=C(C1)Nc1ccc3nccnc3c1C2c1ccc(Br)s1 (racemic) [Compound A100, (±)-12-(5-bromothiophen-2-yl)-9,9-dimethyl-8,9,10,12-tetrahydropyrazino[2,3-a]acridin-11(7H)-one] | Degrader (Compounds that degrade AR (greater than 50% degradation at 10 μM) are indicated) | 0.5
16 | O=C1C2=C(C(=O)c3ccccc31)C(c1ccc(F)c(F)c1)c1c(ccc3ncccc13)N2 (racemic) [Compound A85, (±)-14-(3,4-difluorophenyl)naphtho[2,3-b][4,7]phenanthroline-8,13(7H,14H)-dione] | Degrader (Compounds that degrade AR (greater than 50% degradation at 10 μM) are indicated) | > 10
17 | CC1(C)CC(=O)C2=C(C1)Nc1ccc3ncccc3c1C2c1cc(C(F)(F)F)cc(C(F)(F)F)c1 (stereo not shown) [Compound A50] | Degrader (Compounds that degrade AR (greater than 50% degradation at 10 μM) are indicated) | 6
